# Source: patent US20240182460A1, “ALLOSTERIC CHROMENONE INHIBITORS OF PHOSPHOINOSITIDE 3-KINASE (PI3K) FOR THE TREATMENT OF DISEASE” (PETRA PHARMA CORPORATION, priority 2022, published 2024)
# Test: Metabolic stability and intrinsic clearance in human liver microsomes (MICS)
# Type: in vitro ADME
# Conditions: human, microsomes, pH 7.4
# Procedure: Metabolic Stability and Intrinsic Clearance in Liver Microsomes (MICS)
# One objective of this assay is to measure in vitro metabolic stability of a test compound in liver microsomes of one or more different species. The concentration of a control compound in the reaction system is evaluated by LC/MS/MS for calculating intrinsic clearance of a test compound and estimating the stability of the control compound and test compound in liver microsomes of one or more different species.
# Microsomes (MICS). Human Liver Microsomes (HLM), Monkey Liver Microsomes (MKLM), Dog Liver Microsomes (DLM), Rat Liver Microsomes (RLM), and Mouse Liver Microsomes (MLM) are obtained at a concentration of 20 mg/mL protein from commercial sources and stored in a −80° C. freezer. Prior to use, liver microsomes are removed from the freezer and allowed to thaw in a 37° C. water bath and then stored on wet ice.
# Stock Solutions. Test Compound (TC) Stock Solutions are prepared in DMSO at a concentration of 10 mM and stored for later use. Positive Control (PC) Stock Solutions of verapamil·HCL (FW: 491.1 g/mol) in DMSO are prepared at a concentration of 10 mM (4.91 mg/mL), and stored at the condition same as the stock solutions of test compounds.
# Phosphate Buffer. Phosphate Buffer (100 mM, pH 7.4) is prepared by combining a Solution A and a Solution B as follows.
# To prepare Solution A, 7.098 g of disodium hydrogen phosphate was combined with 500 mL of pure water and sonicated to dissolve. To prepare the Solution B, 3.400 g of potassium dihydrogen phosphate was combined with 250 mL of pure water and sonicated to dissolve. Solution A was placed on a stirrer and Solution B was slowly added into Solution A until the pH reached 7.4.
# NADPH Solution. A 10 mM NADPH Solution is prepared by dissolving NADPH (MW: 833.4 g/mol) at 8.334 mg/mL in phosphate buffer (100 mM, pH 7.4).
# Microsome Master Solution. A Microsome Master Solution is prepared by adding 6.25 μL microsomes (20 mg/mL) to 216.25 μL Phosphate Buffer (100 mM). The final concentration is Phosphate Buffer (100 mM); microsomes (0.5 mg/mL).
# Dilution of Stock Solutions. The TC Stock Solutions (10 mM in DMSO) and the PC Stock Solutions (10 mM in DMSO) are diluted by adding 3 μL of the TC Stock Solution or the PC Stock Solution to 297 μL of 50% acetonitrile/50% water.
# Incubation. Two separated experiments were performed as follows. a) With Cofactors (NADPH): 25 μL of 10 mM NADPH was added to the incubations. The final concentrations of
# microsomes and NADPH were 0.5 mg/mL and 1 mM, respectively. b) Without Cofactors (NADPH): 25 μL of 100 mM Phosphate buffer was added to the incubations. The final concentration of microsomes was 0.5 mg/mL. The mixture was pre-warmed at 37° C. for 10 minutes.
# The reaction was started with the addition of 2.5 μL of 100 μM PC solution or TC solutions.
# Verapamil was used as PC in this study. The final concentration of test compound or control compound was 1 μM. The incubation solution was incubated in water batch at 37° C.
# Reaction Termination. Aliquots of 30 μL were taken from the reaction solution at 0.5, 5, 15, 30 and 60 minutes and added to plates. The reaction was stopped by the addition of 5 volumes of cold acetonitrile and a solution containing 100 nM alprazolam, 200 nM caffeine and 100 nM tolbutamide.
# Sampling. The plates containing the terminated reactions were centrifuged at 4000 rpm for 30 minutes. Supernatant of each compound (40 μL) was transferred into a 96-well analysis plate.
# Four compound samples are pooled together into one cassette and diluted by adding 160 μL of pure water. All incubations are performed in duplicate.
# Analysis and Data Processing. Quantitative LC-MS analysis is performed, and peak areas are determined from extracted ion chromatograms. Percent parent remaining was calculated from peak area of TC or PC. The slope value, k, is determined by linear regression of the natural logarithm of percent parent remaining vs. incubation time curve. […]
row,Compound,microsomal CLint at 1 μM
1,"Cc1cc([C@@H](C)Oc2ccc(Cl)nc2C(N)=O)c2oc(-c3ccc4[nH]c(=O)ccc4c3)c(C)c(=O)c2c1 [Example 105A, 6-Chloro-3-[(1R)-1-[3,6-dimethyl-4-oxo-2-(2-oxo-1H-quinolin-6-yl)chromen-8-yl]ethoxy]pyridine-2-carboxamide]",< 50 µL/min/mg
2,"Cc1cc([C@@H](C)Oc2ccc(Cl)nc2C(N)=O)c2oc(-c3cc4cn(C)nc4cc3F)c(C)c(=O)c2c1 [Example 42C, 6-Chloro-3-[(1R)-1-[2-(6-fluoro-2-methyl-indazol-5-yl)-3,6-dimethyl-4-oxo-chromen-8-yl]ethoxy]pyridine-2-carboxamide]",< 50 µL/min/mg
3,"Cc1cc([C@@H](C)Oc2ccc(Cl)nc2S(N)(=O)=O)c2oc(-c3cnc(C)o3)c(C)c(=O)c2c1 [Example 10C, 6-Chloro-3-[(1R)-1-[3,6-dimethyl-2-(2-methyloxazol-5-yl)-4-oxo-chromen-8-yl]ethoxy]pyridine-2-sulfonamide]",< 50 µL/min/mg
4,"Cc1cc([C@@H](C)Oc2ccc(Cl)nc2S(C)(=N)=O)c2oc(-c3cnn(C)c3)c(C)c(=O)c2c1 (stereo partly drawn) [Example 147A, 8-[(1R)-1-[[6-Chloro-2-(methylsulfonimidoyl)-3-pyridyl]oxy]ethyl]-3,6-dimethyl-2-(1-methylpyrazol-4-yl)chromen-4-one]",< 50 µL/min/mg
5,"COc1cc(-c2oc3c([C@@H](C)Oc4ccc(Cl)nc4C(N)=O)cc(C)cc3c(=O)c2C)cc2cn(C)nc12 [Example 44C, 6-Chloro-3-[(1R)-1-[2-(7-methoxy-2-methyl-indazol-5-yl)-3,6-dimethyl-4-oxo-chromen-8-yl]ethoxy]pyridine-2-carboxamide]",< 50 µL/min/mg
6,"Cc1cc([C@@H](C)Oc2ccc(Cl)nc2S(N)(=O)=O)c2oc(-c3ccc(C#N)cc3)c(C)c(=O)c2c1 [Example 25C, 6-Chloro-3-[(1R)-1-[2-(4-cyanophenyl)-3,6-dimethyl-4-oxo-chromen-8-yl]ethoxy]pyridine-2-sulfonamide]",< 50 µL/min/mg
7,"Cc1cc([C@@H](C)Oc2ccc(Cl)nc2C(N)=O)c2oc(-c3cc(C#N)c4nn(C)cc4c3)c(C)c(=O)c2c1 [Example 52C, 6-Chloro-3-[(1R)-1-[2-(7-cyano-2-methyl-indazol-5-yl)-3,6-dimethyl-4-oxo-chromen-8-yl]ethoxy]pyridine-2-carboxamide]",< 50 µL/min/mg
8,"Cc1cc([C@@H](C)Oc2ccc(Cl)nc2S(N)(=O)=O)c2oc(-c3cccc(C#N)c3)c(C)c(=O)c2c1 [Example 24C, 6-Chloro-3-[(1R)-1-[2-(3-cyanophenyl)-3,6-dimethyl-4-oxo-chromen-8-yl]ethoxy]pyridine-2-sulfonamide]",< 50 µL/min/mg
9,"Cc1cc([C@@H](C)Oc2ccc(Cl)nc2S(N)(=O)=O)c2oc(-c3cnn(CC4(O)CC4)c3)c(C)c(=O)c2c1 [Example 128C, 6-Chloro-3-[(1R)-1-[2-[1-[(1-hydroxycyclopropyl)methyl]pyrazol-4-yl]-3,6-dimethyl-4-oxo-chromen-8-yl]ethoxy]pyridine-2-sulfonamide]",< 50 µL/min/mg
10,"CONC(=O)c1nc(Cl)ccc1O[C@H](C)c1cc(C)cc2c(=O)c(C)c(-c3ccc4nn(CCO)cc4c3)oc12 [Example 135C, 6-Chloro-3-[(1R)-1-[2-[2-(2-hydroxyethyl)indazol-5-yl]-3,6-dimethyl-4-oxo-chromen-8-yl]ethoxy]-N-methoxy-pyridine-2-carboxamide]",< 50 µL/min/mg

# Further lines, results first:
row,microsomal CLint at 1 μM,Compound
1,< 50 µL/min/mg,"Cc1cc([C@@H](C)Oc2ccc(Cl)nc2-c2noc(=O)[nH]2)c2oc(-c3cnc4c(c3)OCCO4)c(C)c(=O)c2c1 [Example 47A, 3-[6-Chloro-3-[(1R)-1-[2-(2,3-dihydro-[1,4]dioxino[2,3-b]pyridin-7-yl)-3,6-dimethyl-4-oxo-chromen-8-yl]ethoxy]-2-pyridyl]-4H-1,2,4-oxadiazol-5-one]"
2,< 50 µL/min/mg,"Cc1cc([C@@H](C)Oc2ccc(Cl)nc2C(N)=O)c2oc(-c3cncnc3)c(C)c(=O)c2c1 [Example 67A, 6-Chloro-3-[(1R)-1-(3,6-dimethyl-4-oxo-2-pyrimidin-5-yl-chromen-8-yl)ethoxy]pyridine-2-carboxamide]"
3,< 50 µL/min/mg,"Cc1cc([C@@H](C)Oc2ccc(Cl)nc2-c2noc(=O)[nH]2)c2oc(-c3cnc4scnc4c3)c(C)c(=O)c2c1 [Example 1B, 3-[6-Chloro-3-[(1R)-1-(3,6-dimethyl-4-oxo-2-thiazolo[5,4-b]pyridin-6-yl-chromen-8-yl)ethoxy]-2-pyridyl]-4H-1,2,4-oxadiazol-5-one]"
4,< 50 µL/min/mg,"Cc1cc([C@@H](C)Oc2ccc(Cl)nc2-c2noc(=O)[nH]2)c2oc(-c3ccc4nn(C)cc4c3)c(C)c(=O)c2c1 [Example 18A, 3-[6-Chloro-3-[(1R)-1-[3,6-dimethyl-2-(2-methylindazol-5-yl)-4-oxo-chromen-8-yl]ethoxy]-2-pyridyl]-4H-1,2,4-oxadiazol-5-one]"
5,< 50 µL/min/mg,"Cc1cc([C@@H](C)Oc2ccc(Cl)nc2-c2noc(=O)[nH]2)c2oc(C3CC3)c(C)c(=O)c2c1 [Example 64A, 3-[6-Chloro-3-[(1R)-1-(2-cyclopropyl-3,6-dimethyl-4-oxo-chromen-8-yl)ethoxy]-2-pyridyl]-4H-1,2,4-oxadiazol-5-lone]"
6,< 50 µL/min/mg,"Cc1cc([C@@H](C)Oc2ccc(Cl)nc2C(N)=O)c2oc(-c3cnc4oc(C)nc4c3)c(C)c(=O)c2c1 [Example 130A, 6-Chloro-3-[(1R)-1-[3,6-dimethyl-2-(2-methyloxazolo[5,4-b]pyridin-6-yl)-4-oxo-chromen-8-yl]ethoxy]pyridine-2-carboxamide]"

# Same assay, conditions: pH 7.4; human liver microsomes 0.5 mg/mL, 1 μM compound; read-out: intrinsic clearance in human MICS
row,microsomal CLint at 1 μM,Compound
1,< 50 µL/min/mg,"Cc1cc([C@@H](C)Oc2ccccc2-c2noc(=O)[nH]2)c2oc(-c3ccccc3)c(C)c(=O)c2c1 [Example 4, 3-[2-[(1R)-1-(3,6-Dimethyl-4-oxo-2-phenyl-chromen-8-yl)ethoxy]phenyl]-4H-1,2,4-oxadiazol-5-one]"
